The first data set has as its target amyloid (Homo sapiens, UniProt P05067).
Assay: not given
The conditions noted are these: PET, patients with AD vs healthy people; cited from earlier work.
amyloid, sequence (P05067 672-713 limits assumed): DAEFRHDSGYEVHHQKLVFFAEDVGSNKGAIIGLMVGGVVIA
amyloid, sequence (P05067 672-711 limits assumed): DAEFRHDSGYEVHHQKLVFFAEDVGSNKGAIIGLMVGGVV
Take `CNc1ccc(-c2nc3ccc(O)cc3s2)cc1` [carbon-11-labelled-PIB, 6-hydroxy-2-(4′-methylaminophenyl)benzothiazole]: the “binding in the brains of patients with AD compared with healthy people” value is recorded as “more binding in the brains of patients with AD than in those of healthy people”.

As for `CC(=C(C#N)C#N)c1ccc2cc(N(C)CC[18F])ccc2c1` [fluorine-18-labelled-FDDNP, 2-(1-{6-[(2-[^18F]fluoroethyl)(methyl)amino]-2-naphthyl}ethylidene)malononitrile], the “binding in the brains of patients with AD compared with healthy people” value is given as “more binding in the brains of patients with AD than in those of healthy people”.

In a further data set the target is T1, beta-amyloid plaques in AD brain tissue (Homo sapiens, UniProt P05067).
T1 construct: gauged from the concentration of Aβ1-40 and Aβ1-42 monomers; from tissue; host or cells: postmortem human AD brain grey matter; plaques isolated by SDS/sucrose centrifugation and collagenase/DNase digestion
T1 sequence (P05067 672-713 limits assumed): as the sequence (P05067 672-713 limits assumed) above
T1 sequence (P05067 672-711 limits assumed): as the sequence (P05067 672-711 limits assumed) above
Kind of data set: In vitro binding assay: competitive displacement of [3H]6-OH-BTA-1 from isolated human AD amyloid plaques. The note with it: [3H]6-OH-BTA-1 as reference radioligand; isolated human AD amyloid plaques; Table 4. As to the method: Isolation of human AD amyloid. Postmortem brain […] were obtained from a confirmed AD patient. Pre- and postmortem consent was obtained from next of kin, and brains were removed at autopsy, sectioned and frozen at −70° C. Bags of brain tissue were removed from the freezer to a −20° C. freezer one day before, and then placed on ice 3 h before the experiment. While working on ice, the brain tissue was cut into small sections, and meningies from outer layer of cortex and from fissures between the lobes of the gray matter was removed. After removing the white matter, the grey matter were chopped into small pieces and placed into plastic bags. The tissue was stored in −70° C. freezer for further use.
In a typical isolation, 60 g of brain tissue were used. Initially, an equal volume of 1% SDS was added to homogenize. More 1% SDS was added later until 200 mL. The mixture was vortexed, distributed evenly among 10 Beckman ultracentrifuge tubes, and centrifuged by a Coulter type 55.2 Ti ultracentrifuge rotor using RPM: 40,000; G force; 180,000; temp: 4° C.; time: 30 min. The collected bottom pellets were further homogenized and centrifuged twice more as described above using 50 mL and 20 mL of 1% SDS each, and finally in 20 mL 1.2 M sucrose. The supernatant along the top pellet was discarded. The pellets at the bottom were homogenized and centrifuged in 20 mL 1.9 M sucrose. The top pellets were collected using a cell scrapper, and the bottom pellets were discarded. The collected top pellets were homogenized and centrifuged using 20 mL deionized water. The bottom pellets were further homogenized and centrifuged using 1.3 M sucrose solution into one centrifuge tube. The bottom pellets were homogenized and centrifuged using 20 mL deionized water. The collected pellets were homogenized in 30 mL of 50 mM Tris-HCl, pH 8.0, 2 mM CaCl2. Collagenase CLS3 (120 mg) and DNAase I (10-15 mg) were added. The mixture was vortexed and incubated for 24-56 hrs at 37° C. in a water bath with shaking. After incubation, the suspension was filtered through 41 μm Milllpore filter paper. The collected filtrate was centrifuged and the bottom pellets were homogenized and centrifuged one more time using the Tris-HCl solution. The supernatant was discarded, and the pellets were homogenized and centrifuged using 10 mL 1.9 M sucrose. The top pellet and the 1.9M sucrose layer were transferred to a new tube (this is to remove heavy particles such as metals and salts). Deionized water (40 mL) was added. After homogenization and centrifugation, the collected pellets were put into 500 μL of deionized water to form a homogeneous suspension. It was stored in a refrigerator or freezer for further use.
The amyloid suspension prepared above was diluted by a factor of 40,000 to 50,000 in PBS, and 800 μL suspension was used in each tube. […] Cold 6-OH-BTA-1 or other displacer was dissolved in ethanol to result in a stock solution of 1×10^−3 M, which was further diluted using PBS or ethanol to result in solutions with concentrations ranging from 1×10^−5 to 10^−10 M, and 100 μL was used in each tube. After assembly, the tubes were vortexed, and incubated for 3 hrs at room temperature. After separation using a cell harvester, the filter paper (GF/B filter paper pretreated with 0.5% polyimine solution) was washed with 10% ethanol in PBS (3×3 mL). The filters were placed into 20 mL glass vials and 10 mL scintillation fluid each was added. After overnight incubation, the samples were counted. The data were analyzed using GraphPad Prism 4 or KaleidaGraph 3.6.
Isolated plaques were used in developing an in vitro binding assay. Tritiated-6-OH-BTA-1 was selected as the reference radioligand based on its use in human PET imaging and high affinity.^28 Displacement curves were created using non-radioactive 6-OH-BTA-1 and other novel ligands.
Turning to `CN(CCF)c1ccc(-c2cn3cc(I)ccc3n2)cc1` [Ligand L2, N-(2-fluoroethyl)-4-(6-iodo-H-imidazo[1,2-A]pyridin-2-yl)-N-methylbenzeneamine, reference compound], affinity was put at a Ki of 31 ± 5 nM.

Regarding `CN(CCCF)c1ccc(-c2cn3cc(I)ccc3n2)cc1` [Ligand L3, reference compound], the Ki (as a rule, a measure of affinity in units of concentration, obtained from inhibition or displacement) stood at 41 ± 5 nM.

The compound `CN(C)c1ccc(-c2cn3cc(Br)ccc3n2)cc1` [Ligand L4] showed a Ki of 5.9 ± 0.4 nM.

Turning to `CN(C)c1ccc(-c2cn3cc(Cl)ccc3n2)cc1` [Ligand L5], the affinity corresponds to a Ki of 24.2 ± 5.6 nM.

With `CN(C)c1ccc(-c2cn3cc(F)ccc3n2)cc1` [Ligand L6, 4-(6-fluoro-H-imidazo[1,2-a]pyridin-2-yl)-N,N-dimethylbenzenamine], affinity was put at a Ki of 13 ± 1.6 nM.

As for `CN(C)c1ccc(-c2cn3cc([N+](=O)[O-])ccc3n2)cc1` [Ligand L7, N,N-dimethyl-4-(6-nitro-H-imidazo[1,2-a]pyridin-2-yl)benzenamine], the Ki was determined as 7.6 ± 0.7 nM.

Compound `CN(C)c1ccc(-c2cn3cc(C#N)ccc3n2)cc1` [Ligand L8, 2-(4-(dimethylamino)phenyl)-H-imidazo[1,2-a]pyridine-6-carbonitrile] registered a Ki of 8.2 ± 1 nM.

On to `COc1ccc2nc(-c3ccc(N(C)C)cc3)cn2c1` [Ligand L9, 4-(6-methoxy-H-imidazo[1,2-a]pyridin-2-yl)-N,N-dlmethylbenzenamine], for which the Ki amounted to 38.5 ± 5 nM.

`CN(C)c1ccc(-c2cn3cc(O)ccc3n2)cc1` [Ligand L12, 2-(4-(dimethylamino)phenyl)-H-imidazo[1,2-a]pyridin-6-ol]: the Ki stood at 177 ± 31 nM.

The compound `CN(C)c1ccc(-c2cc3c(I)cc(Br)cn3c2)cc1` [Ligand L13, 4-(6-bromo-8-iodoindolizin-2-yl)-N,N-dimethylbenzenamine] gave a Ki of 183 ± 61 nM.

`CN(C)c1ccc(-c2cc3c(C#N)cc(Br)cn3c2)cc1` [Ligand L14, 6-bromo-2-(4-(dimethylamino)phenyl)indolizine-8-carbonitrile] came in with a Ki above 180 nM.

For the compound `CNc1ccc(-c2cn3cc(Br)ccc3n2)cc1Br` [Ligand L18, 2-bromo-4-(6-bromo-H-imidazo[1,2-a]pyridin-2-yl)-N-methylbenzenamine], the Ki was 7.4 ± 0.6 nM.

`Cc1cc(-c2cn3cc(Br)ccc3n2)ccc1N` [Ligand L20, 4-(6-bromo-H-imidazo[1,2-a]pyridin-2-yl)-2-methylbenzenamine]: the Ki came out at 658 ± 47 nM.

`CNc1ccc(-c2cn3cc(SCC(N)=O)ccc3n2)cc1` [Ligand T1, 2-(2-(4(methylamino)pheny)-H-imidazo[1,2-a]pyridin-6-ylthio)acetamide] had a Ki of 1840 ± 497 nM.

Consider `CN(C)c1ccc(-c2cn3cc(SCC(N)=O)ccc3n2)cc1` [Ligand T2, 2-(2-(4-(dimethylamino)phenyl)-H-imidazo[1,2-a]pyridin-6-ylthio)acetamide], for which the Ki was determined as 391 ± 76 nM.

Turning to `CNc1ccc(-c2cn3cc(SCCO)ccc3n2)cc1` [Ligand T3, 2-(2-(4-(methylamino)phenyl)-H-imidazo[1,2-a]pyridin-6-ylthio)ethanol], the Ki worked out at 645 ± 75 nM.

In turn, `CN(C)c1ccc(-c2cn3cc(SCCO)ccc3n2)cc1` [Ligand T4, 2-(2-(4-(dimethylamino)phenyl)-H-imidazo[1,2-a]pyridin-6-ylthio)ethanol] showed a Ki of 88 ± 6 nM.

As for `COc1ccc(CSc2ccc3nc(-c4ccc(N(C)C)cc4)cn3c2)cc1` [Ligand T5, 4-(6-(4-methoxybenzylthio)-H-imidazo[1,2-a]pyridin-2-yl)-N,N-dimethylbenzenamine], the affinity, expressed as Ki, was 8.3 ± 1.8 nM.

Compound `CSc1ccc2nc(-c3ccc(N(C)C)cc3)cn2c1` [Ligand T6, N,N-dimethyl-4-(6-(methylthio)-H-imidazo[1,2-a]pyridin-2-yl)benzenamine] had a Ki of 7.9 ± 0.6 nM.

For the compound `CCSc1ccc2nc(-c3ccc(N(C)C)cc3)cn2c1` [Ligand T7, 4-(6-(ethylthio)-H-imidazo[1,2-a]pyridin-2-yl)-N,N-dimethylbenzenamine], the Ki was determined as 8.3 ± 0.5 nM.

The same data set, now with this note: [3H]6-OH-BTA-1 as reference radioligand; isolated human AD amyloid plaques; Table 5.
Regarding `CN(C)c1ccc(-c2cn3cc(Cl)ncc3n2)cc1` [Ligand L21, 4-(6-chloroimidazo[1,2-a]pyrazin-2-yl)-N,N-dimethylbenzenamine], the Ki came to 88 ± 22 nM.

For the compound `CN(C)c1ccc(-c2cn3cc(Cl)cnc3n2)cc1` [Ligand L22, 4-(6-chloroimidazo[1,2-a]pyrimidin-2-yl)-N,N-dimethylbenzenamine], the Ki is 147 ± 20 nM.

Take `CN(C)c1ccc(-c2nc3ccc(SCCO)cc3s2)cc1` [Ligand P1]: affinity was put at a Ki of 5.7 ± 0.7 nM.

Still in this data set, the particulars now being: discussion of the Table 4 Ki values.
For the compound `CN(C)c1ccc(-c2cn3cc(O)ccc3n2)cc1` [Ligand L12, 2-(4-(dimethylamino)phenyl)-H-imidazo[1,2-a]pyridin-6-ol], the “binding affinity (in words)” value was “abolishes all binding affinity”.

For the compound `CN(C)c1ccc(-c2cc3c(C#N)cc(Br)cn3c2)cc1` [Ligand L14, 6-bromo-2-(4-(dimethylamino)phenyl)indolizine-8-carbonitrile], the “binding affinity (in words)” value is reported as “completely removes the binding affinity”.

Still in this data set, the particulars now being: displacement of [3H]6-OH-BTA-1 from isolated amyloid plaques.
As for `CNc1ccc(-c2nc3ccc(O)cc3s2)cc1` [PIB, 6-hydroxy-2-(4′-methylaminophenyl)benzothiazole, reference compound], the “displacement of reference radioligand” value was above 95%.

Test system in another data set: not given
Assay: not given
Conditions: not given
On to `CN(C)c1ccc(-c2cn3cc(Cl)ccc3n2)cc1` [Ligand L5], for which the melting point (usually the temperature of the solid-liquid transition) is 234 to 236 °C.

In turn, `CN(C)c1ccc(-c2cn3cc(C#N)ccc3n2)cc1` [Ligand L8, 2-(4-(dimethylamino)phenyl)-H-imidazo[1,2-a]pyridine-6-carbonitrile] had a melting point of 269 to 271 °C.

`CC(=O)N(C)c1ccc(-c2cc3ccc(Br)cn3c2)cc1C` [Ligand L16, N-(4-(6-bromoindolizin-2-yl)-2-methylphenyl)-N-methylacetamide]: the melting point lay in the range of 197 to 198 °C.

As to `CCSc1ccc2nc(-c3ccc(N(C)C)cc3)cn2c1` [Ligand T7, 4-(6-(ethylthio)-H-imidazo[1,2-a]pyridin-2-yl)-N,N-dimethylbenzenamine], the melting point lay within 168 to 171 °C.

Test system in the next data set: not given
Assay: not given
The conditions noted are these: after intravenous injection into rodent or monkey; reported in Cai et al., J. Med. Chem. 2004; cited from earlier work.
As for `CN(CCF)c1ccc(-c2cn3cc(I)ccc3n2)cc1` [[^18F]FEM-IMPY, N-(2-fluoroethyl)-4-(6-iodo-H-imidazo[1,2-A]pyridin-2-yl)-N-methylbenzeneamine], the “SUV (standardized uptake value) in brain” value is reported as “about 160 % I.D.kg/g”.

`CN(CCC[18F])c1ccc(-c2cn3cc(I)ccc3n2)cc1` [[^18F]FPM-IMPY]: the “SUV (standardized uptake value) in brain” value is listed as “about 160 % I.D.kg/g”.

The record behind these values is US20140341812A1, “BETA-AMYLOID PET IMAGING AGENTS” (The United States of America, as represented by the …, priority 2006, published 2014).
